These results are taken from patent US8946436B2, “Oxazolidinone compounds and their uses in preparation of antibiotics” (Sichuan Gooddoctor Pharmaceutical Group Co., Ltd., priority 2011, dated 2015).

≈ marks a conversion by molar mass, not a printed value. Like-named read-outs stand apart in the source and are kept apart here.

In one data set the test system is S. agalactiae. Description: In vitro antibacterial activity (MIC), S. agalactiae. Type of data set: cell-based. The following applies: Streptococcus agalactiae. As to the method: (§1) The test strain was inoculated into the liquid medium and cultured at 37° C. for 16-18 h. The culture liquid and MH medium were put into two blank wells of a 96-well plate, respectively. Then, the absorptions thereof were measured by a Microplate reader. The difference between the absorption values of the culture liquid and MH medium is the adsorption of the bacteria. The concentration of the culture liquid can be calculated according to the formula of 1OD=50 million CFU/mL. The culture liquid was diluted with the MH bouillon culture medium to 5000 CFU/mL for further use.
(§2) Compounds 12a, 13 and 14 were dissolved in DMSO to 1 mg/mL, and then filtered with a 0.22 μm filter to obtain the compound solutions. And then they were gradually diluted to a desired concentration (10× final concentration) with the liquid medium, so as to obtain a series of dilutions. The final concentration grade of the dilutions of each tested compound consists of 14 concentrations, which includes: 0.03125 μg/mL, […], 0.125 μg/mL, 0.25 μg/mL, […], 1 μg/mL, 2 μg/mL, 4 μg/mL, 8 μg/mL, 16 μg/mL, 32 μg/mL, 64 μg/mL, 128 μg/mL and 256 μg/mL.
(§3) 10 μL of each of the compound dilutions above was added into a well of a 96-well plate. 90 μL of the culture liquid (5000 CFU/mL) was added into each of the wells, respectively, mixed with the dilutions to render the tested compound concentration to the final concentration. The resulted mixture was incubated at 37° C. for 16-18 h, and then the OD630 thereof was measured. A culture liquid free of the tested compounds is used as a blank control, and three parallel tests with the same concentration of each compound were performed. The minimum inhibitory concentration (MIC) of each compound on the standard strain of Staphylococcus Aureus and other test strains was determined. Specifically, among the culture liquid contained in the wells of the micro-plate, the first three lowest concentrations under which growth of the test strains could be observed were chose for further evaluation of the MIC. A culture liquid free of tested compounds was used as a blank control. Each of the culture liquids was homogenized independently, and then was diluted with a sterile saline. Each of the diluted culture liquids was plated onto a MH bouillon plate and incubated at 37° C. for 20 h in incubator. After the incubation, the number of the colonies on each plate was counted. As compared with the blank control group, the lowest concentration of each of the test compound groups, at which 80% reduction in the colony number of the strains was achieved, was recorded as the MIC.

The next data set relates to HEK-293. Description: Cytotoxicity experiment (MTT), HEK-293. Type of data set: cell-based. The conditions noted are these: Homo sapiens, HEK293, 48 h, HEK-293 normal cells, read-out: Inhibition ratio. As to the method: (§4) (1) Inoculating cells: Experimental cells in the growth of logarithmic phase were collected and suspended. The cell concentration of the suspension was adjusted so that they could be inoculated into the wells of 96-well micro plate at a density between 10^3-10^4 cells per well (200 μl per well). (2) Culturing cells: The cells were cultured at normal conditions for 3 days and then exposed to 50 uM compounds for test. (3) Coloring reaction: At 24 h, 48 h and 72 h after the cells being exposed to the compounds for test, 200 μl culture medium containing 20 μl MTT solution (5 mg/ml) was added into each well, and the well was further incubated at 37° C. for 2 hours to terminate the incubation. After the incubation, the supernatants were removed from the wells. In the event there were suspended cells in the wells, centrifugation should be performed before removal of supernatant from the wells. After the removal, 150 μl DMSO was added to each well and mixed thoroughly by agitation for 10 mins to fully dissolve crystals. (4) Ascertainment of colorimetry: The absorbance value at 490 nm of each well was determined by Enzyme-linked immunosorbent Monitor. The growth curve of the experimental cells was plotted by taking time as x-coordinate and absorbance value as y-coordinate. In addition, an inhibition ratio could be calculated in accordance with the following formula: Inhibition ratio=(absorbance value of control group-absorbance value of administering group)/absorbance value of control group×100%.

For the next data set, the system named is E. faecalis. Description: In vitro antibacterial activity (MIC), E. faecalis. The following applies: Enterococcus faecalis. Type of data set: cell-based. The protocol:
as §1, §2, §3

Another data set relates to L-02. In words: Cytotoxicity experiment (MTT), L-02. The following applies: Homo sapiens, L02, 48 h, L-02 normal cells, read-out: Inhibition ratio. Type of data set: cell-based. As to the method: as §4
The subject of another data set is S. aureus. Description: In vitro antibacterial activity (MIC), S. aureus. It counts as cell-based, Staphylococcus Aureus. The conditions noted are these: Staphylococcus aureus. The protocol:
Strains: strain ATCC25923 is available from the American Type Culture Collection, and is used as a standard strain of Staphylococcus Aureus;
Liquid medium: MH bouillon culture medium, a product of BD Company, United States of American;
Tested Compounds: compounds 12a, 13 and 14 prepared according to the methods above, and Linezolid purchased from Pfizer.
as §1, §2, §3

The next data set relates to S. pneumoniae. Description: In vitro antibacterial activity (MIC), S. pneumoniae. Type of data set: cell-based. The conditions noted are these: Streptococcus pneumoniae. As to the method:
as §1, §2, §3

Where [1] appears, read: S. agalactiae (5 strains), read-out: MIC.
Setting [2] is: E. faecalis (7 strains), read-out: MIC.
Where [3] appears, read: S. aureus (12 strains), read-out: MIC.
The mark [4] stands for this setting: S. pneumoniae (10 strains), read-out: MIC.

For orientation: MIC means the lowest concentration found to suppress growth. What is called melting point is the temperature of the solid-liquid transition. Take `CC(=O)NC[C@H]1CN(c2ccc(-n3nccc3-c3ccncc3)c(F)c2)C(=O)O1` [Compound 14h, (S)-N-((3-(3-fluoro-4-(5-(pyridin-4-yl)-1H-pyrazol-1-yl)phenyl)-2-oxooxazolidin-5-yl)methyl)acetamide]: the melting point was in the range of 74.5 to 76.3 °C. In the data set with S. agalactiae (setting [1]), the minimum inhibitory concentration (MIC) was 0.5 to 8 mg/L (≈ 1.26 to 20.2 µM). Further, the cytotoxicity at 50 µM with HEK-293 was determined as 5%. In addition, the MIC in the data set with E. faecalis (setting [2]) was 0.5 to 8 mg/L (≈ 1.26 to 20.2 µM). In addition, the cytotoxicity at 50 µM in the data set with L-02 amounted to 14%. The MIC in the data set with S. aureus (setting [3]) was 1 to 4 mg/L (≈ 2.53 to 10.1 µM). Moreover, the minimal inhibitory concentration (MIC) in the data set on S. pneumoniae (setting [4]) was 0.25 to 4 mg/L (≈ 0.632 to 10.1 µM).

With `CC(=O)NC[C@H]1CN(c2ccc(-n3cc(-c4ccc(Cl)cc4)cn3)c(F)c2)C(=O)O1` [Compound 13d, (S)-N-((3-(3-fluoro-4-(4-(4-chlorophenyl)-1H-pyrazol-1-yl)phenyl)-2-oxooxazolidin-5-yl)methyl)acetamide], the melting point was 237.5 to 238.2 °C. Moreover, the MIC in the data set on S. agalactiae lay in the range of 0.5 to 8 mg/L (≈ 1.17 to 18.7 µM). Further, in the data set with HEK-293, the cytotoxicity at 50 µM was 21%. The MIC in the data set with E. faecalis was 0.5 to 8 mg/L (≈ 1.17 to 18.7 µM). In the data set on L-02, the cytotoxicity at 50 µM worked out at 39.3%. The compound also showed a minimum inhibitory concentration (MIC) with S. aureus of 1 to 4 mg/L (≈ 2.33 to 9.33 µM). Also, the MIC with S. pneumoniae lay in the range of 0.25 to 4 mg/L (≈ 0.583 to 9.33 µM).

The compound `CC(=O)NC[C@H]1CN(c2ccc(-n3nccc3-c3cccc(Br)n3)c(F)c2)C(=O)O1` [Compound 14b, (S)-N-((3-(3-fluoro-4-(5-(6-bromopyridin-2-yl)-1H-pyrazol-1-yl)phenyl)-2-oxooxazolidin-5-yl)methyl) acetamide] yielded a melting point of 90.5 to 92.3 °C. Besides, in the data set with S. agalactiae (setting [1]), the MIC fell in the range of 4 to 32 mg/L (≈ 8.43 to 67.5 µM). Moreover, the cytotoxicity at 50 µM in the data set with HEK-293 was 19.5%. In the data set with E. faecalis (setting [2]), the MIC is 4 to 32 mg/L (≈ 8.43 to 67.5 µM). Also, the cytotoxicity at 50 µM in the data set on L-02 turned out to be 21%. For the same compound, in the data set on S. aureus (setting [3]), the minimum inhibitory concentration (MIC) is 4 to 32 mg/L (≈ 8.43 to 67.5 µM). The MIC in the data set with S. pneumoniae (setting [4]) is 2 to 32 mg/L (≈ 4.22 to 67.5 µM).

As to `CC(=O)NC[C@H]1CN(c2ccc(-n3cc(-c4ccc(C(=O)O)cn4)cn3)c(F)c2)C(=O)O1` [Compound 13e, (S)-N-((3-(3-fluoro-4-(4-(5-carboxyl-pyridin-2-yl)-1H-pyrazol-1-yl)phenyl)-2-oxooxazolidin-5-yl)methyl) acetamide], the melting point is 279.6 to 280.2 °C. Moreover, the MIC with S. agalactiae (setting [1]) lay in the range of 0.5 to 4 mg/L (≈ 1.14 to 9.1 µM). In addition, the cytotoxicity at 50 µM in the data set on HEK-293 was 36.3%. For the same compound, in the data set on E. faecalis (setting [2]), the MIC was in the range of 1 to 8 mg/L (≈ 2.28 to 18.2 µM). In addition, in the data set with L-02, the cytotoxicity at 50 µM stood at 38%. The minimum inhibitory concentration (MIC) with S. aureus (setting [3]) was in the range of 1 to 8 mg/L (≈ 2.28 to 18.2 µM). For the same compound, the MIC in the data set with S. pneumoniae (setting [4]) was 0.5 to 8 mg/L (≈ 1.14 to 18.2 µM).
